Patent US20050192356A1, “Synergistic anti-inflammatory pharmaceutical compositions and methods of use” (priority 2004, published 2005)
Converted amounts (≈) assume the structure as drawn. Like-named read-outs stand apart in the source and are kept apart here.

Tested on: PGE2 synthesis in AGS cells
Experiment: PGE2 synthesis in the AGS human gastric mucosal cell model (A23187)
Assay type: cell-based
Description: Exponentially growing cells were seeded into 6-well plates and grown to confluence. A 20 μL aliquot of the supernatant media was sampled for determination of PGE2 content. Cells were then washed in PBS, scraped and lysed for immunoblotting.

[1] = AGS cells, historical control values, read-out: AGS IC50 for PGE2 synthesis, historical control

SMILES	IC50 [1]	IC50 (AGS cells, test material 60 minutes prior to A23187, media removed 30 minutes later, average of three independent assays, read-out: AGS IC50 for PGE2 synthesis)	IC50 (AGS, read-out: AGS IC50 for PGE2 synthesis, historical control)
CC(=O)Oc1ccccc1C(=O)O [Aspirin]	0.52 µg/mL (≈ 2.89 µM)	1.2 µg/mL (≈ 6.66 µM)	–
Cc1ccc(-c2cc(C(F)(F)F)nn2-c2ccc(S(N)(=O)=O)cc2)cc1 [Celcoxib]	–	–	0.024 µg/mL (≈ 0.0629 µM)
CC(C)Cc1ccc(C(C)C(=O)O)cc1 (centres unmarked) [Ibuprofen]	0.57 µg/mL (≈ 2.76 µM)	–	–
CS(=O)(=O)c1ccc(C2=C(c3ccccc3)C(=O)OC2)cc1 [Rofecoxib]	1.8 µg/mL (≈ 5.73 µM)	–	–
